According to patent EP0569598A1, “BENZOXAZINONE DERIVATIVE” (JAPAN TOBACCO INC., priority 1991, dated 1993):

Experiments:
[1] = target: T1, human leukocyte elastase (HLE) (Homo sapiens, UniProt P08246); assay: HLE inhibitory activity (synthetic substrate, pNA release, absorbance 405 nm); assay type: biochemical; conditions: pH 8.6; HLE 5.63 nM, substrate 0.2625 mM; 37°C; read-out: IC₅₀ value HLE
T1 construct: the mixed solution was subjected to density gradient centrifugation, thereby obtaining neutrophiles; from tissue; host or cells: neutrophils from human vein blood (buffy coat)
T1 sequence (P08246 30-247 limits assumed): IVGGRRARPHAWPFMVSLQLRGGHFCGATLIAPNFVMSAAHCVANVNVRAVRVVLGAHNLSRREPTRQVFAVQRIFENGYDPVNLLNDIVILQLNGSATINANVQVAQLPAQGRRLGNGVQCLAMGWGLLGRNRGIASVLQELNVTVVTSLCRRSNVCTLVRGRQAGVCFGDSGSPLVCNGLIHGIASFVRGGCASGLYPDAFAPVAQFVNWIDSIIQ
Experimental: (§1) Activities of the Benzoxazine derivatives of the present invention against human leukocyte elastase (HLE), human sputum elastase (HSE), human cathepsin G (HCG), bovine pancreatic α-chmotrypsin (CYT) and bovine pancreatic trypsin (TRY) were measured by the following method.
A buffy coat was obtained by subjecting human vein blood to centrifugation. To the buffy coat was added distilled water to make a hypotonic solution, thereby bursting erythrocytes. To the residual blood cell component was added a 33.4% of Conrey 400 solution/9% Ficoll solution (the ratio of the former solution to the latter solution is 10:24), and the mixed solution was subjected to density gradient centrifugation, thereby obtaining neutrophiles. The neutrophile fraction was washed with Hanks' buffer for three times and then cells were recovered and cryopreserved at -80°C until use. The cryopreserved-cells were thawed with warm water at 37°C and suspended in a 9-fold volume of lysis buffer containing 0.1M Tris-HCl (pH7.5), 1M MgCl₂ and 0.1% Brij 35. The suspended cells are destroyed by means of polotoron with ice-cooling. The cell suspension was subjected to centrifugation at 100,000 x g for 1 hour. After removing precipitates, 2-fold volume of a Tris-HCl buffer containing 5 mM Tris-HCl(pH 7.5), 1M NaCl and 1.1% Brij 35 was added to the supernatant, thereby obtaining a crude solution of an enzyme extract. The crude solution was subjected to aprotinine affinity column and extracted with an elution buffer containing […] of glycine-HCl (pH 3.3), 1M NaCl and 0.1% Brij 35, thereby obtaining an active fraction. The obtained active fraction was further subjected to MONO S-ion-exchange chromatography and eluted with 2M NaCl linear gradient. The obtained fraction was dialyzed against 25 mM Tris-HCl (pH8.6) and lyophilized, thereby obtained an enzyme sample.
(§2) A test compound was dissolved in DMSO (for fluorometry) and prepared various concentration of the solution. To each concentration was added 2-fold volume of 0.2M Tris-HCl (pH8.6), thereby obtaining a test solution. Synthetic substrate (Funakoshi, L-1335) was dissolved in DMSO and 2-volume of 0.2M Tris-HCl (pH8.6) was added thereto, thereby obtaining a substrate solution. The reaction was performed using a microplate having 96 wells (Nunk). Six-time reactions were repeated for each concentration. One handred and forty µl of an enzyme solution containing 0.2M Tris-HCl (pH8.6), 30 µl of a test solution and 30 µl of a substrate solution per well of the microplate were respectively pre-incubated at 37°C for 10 minutes. After completion of the incubation, the enzyme solution was mixed with the test sample and incubated for 10 minutes and then the substrate solution was added to perform an enzyme reaction. The absorbance of released P-nitroanilide (PNA) was measured at the wave length of 405 nm by means of a microplate reader (MTP-100; CORONA), thereby determining the substrate decomposition. The rate of the substrate decomposition was shown as an average value of 6 repeated reactions. The inhibitory concentration of a test compound relative to the amount of the substrate decomposition in the reaction mixture without a test compound was regarded as an IC₅₀ value. The final concentration of HLE and a synthesized substrate in the reaction mixture were 5.63 nM and 0.2625 mM, respectively.

[2] = target: T2, human cathepsin G (HCG) (Homo sapiens, UniProt P08311); assay: HCG inhibitory activity (synthetic substrate, pNA release); assay type: biochemical; conditions: pH 7.5; HCG 50 nM, substrate 0.5 mM; read-out: IC₅₀ value HCG
T2 construct: purchased Cosmo Bio Inc
T2 sequence (P08311 21-244): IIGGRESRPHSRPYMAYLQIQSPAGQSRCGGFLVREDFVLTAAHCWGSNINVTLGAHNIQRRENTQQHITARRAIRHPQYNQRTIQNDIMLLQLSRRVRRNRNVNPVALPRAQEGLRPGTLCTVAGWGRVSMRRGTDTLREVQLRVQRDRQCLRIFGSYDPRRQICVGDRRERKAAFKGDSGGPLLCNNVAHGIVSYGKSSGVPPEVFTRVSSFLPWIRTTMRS
Experimental: as §1, §2
a) Enzyme obtaining route HCG was obtained from Cosmo Bio Inc.
The same method as in the measurement of HLE inhibitory activity was used except that a buffer solution (pH 7.5) was used. The final concentration of HCG and synthetic substrate (Funakoshi, L-1010) in a reaction mixture were 50 nM and 0.5 mM, respectively.

[3] = target: T3, bovine pancreatic trypsin (TRY) (Bos taurus, UniProt P00760); assay: TRY inhibitory activity (synthetic substrate, pNA release); assay type: biochemical; conditions: pH 7.5; TRY 25 nM, substrate Z-Arg-pNA 1.0 mM; read-out: IC₅₀ value TRY
T3 construct: bovine pancreatic trypsin (TRY); purchased Sigma Inc
T3 sequence (P00760 24-246): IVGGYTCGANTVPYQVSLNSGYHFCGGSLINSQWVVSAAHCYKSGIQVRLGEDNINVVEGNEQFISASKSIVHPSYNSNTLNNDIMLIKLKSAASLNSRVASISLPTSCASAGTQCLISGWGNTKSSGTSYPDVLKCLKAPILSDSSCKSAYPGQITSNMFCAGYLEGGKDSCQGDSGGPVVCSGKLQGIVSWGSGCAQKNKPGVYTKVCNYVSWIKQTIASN
Experimental: as §1
as §2, with “The rate of the substrate decomposition was shown as an average value of 6 repeated reactions. The inhibitory concentration of a test compound relative to the amount of the substrate decomposition in the reaction mixture without a test compound was regarded as an IC₅₀ value. The final concentration of HLE and a synthesized substrate in the reaction mixture were 5.63 nM and 0.2625 mM, respectively.” left out

[4] = target: T4, bovine pancreatic α-chmotrypsin (CYT) (Bos taurus, UniProt P00766); assay: CYT inhibitory activity (synthetic substrate, pNA release); assay type: biochemical; conditions: pH 8.0; CYT 3.4 nM, substrate 0.273 mM; read-out: IC₅₀ value CYT
T4 construct: bovine pancreatic α-chmotrypsin (CYT); purchased Sigma Co., Ltd
Experimental: as §1, §2
a) Enzyme obtaining route CYT was obtained from Sigma Co., Ltd.
Substantially the same method as used in the measurement of the HLE inhibitory activity was used except that a buffer solution (pH 8.0) was used. The final concentration of CYT and synthetic substrate (Funakoshi, L-1010) in a reaction mixture were 3.4 nM and 0.273 mM, respectively.

[5] = target: T5, human sputum elastase (HSE) (Homo sapiens, UniProt P08246); assay: HSE inhibitory activity (synthetic substrate, pNA release); assay type: biochemical; conditions: pH 7.0; HSE 10 nM, substrate 0.25 mM; read-out: IC₅₀ value HSE
T5 construct: human sputum elastase (HSE); purchased Sigma Inc
T5 sequence (P08246 30-267): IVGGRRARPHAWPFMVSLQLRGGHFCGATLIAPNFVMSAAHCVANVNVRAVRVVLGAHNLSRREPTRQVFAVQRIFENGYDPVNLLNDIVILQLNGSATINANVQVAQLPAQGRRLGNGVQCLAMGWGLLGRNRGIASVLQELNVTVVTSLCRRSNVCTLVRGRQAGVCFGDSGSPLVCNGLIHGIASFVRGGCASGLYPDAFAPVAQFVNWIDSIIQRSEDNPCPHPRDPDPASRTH
Experimental: as §1
as §2, with “The rate of the substrate decomposition was shown as an average value of 6 repeated reactions. The inhibitory concentration of a test compound relative to the amount of the substrate decomposition in the reaction mixture without a test compound was regarded as an IC₅₀ value. The final concentration of HLE and a synthesized substrate in the reaction mixture were 5.63 nM and 0.2625 mM, respectively.” left out

[6] = test system: neutrophiles from the human peripheral blood; assay: Human neutrophile chemotaxis suppressing activity (fMLP, chemotaxis chamber); assay type: cell-based; conditions: 10-⁷M fMLP, one hour at 37°C; for Chemotaxis: experiment without compound regarded as 100
Experimental: The neutrophile fraction (60% percoal fraction having neutrophile purity of 90% or more) was taken from the human peripheral blood by means of percoal density gradient centrifugation at 2300 rpm for 20 minutes.
An intercell having a pore diameter of 5 µm, containing 8 x 10⁵ of neutrophiles and the compound of the present invention adjusted in various concentrations was placed in each well of a chemotaxis chamber (KURABO), in which has been added 1300 µl of a medium containing 10-⁷M of formylmethionyl-leucyl-phenylalanine (fMLP), which is a neutrophile chemotaxis factor. After incubating for one hour at 37°C in an incubator containing 5% carbon dioxide, the number of cells migrating from the upper side of the intercell membrane into the lower side of the membrane in the chamber was counted by the following method. That is, the lower side surface of the intercell membrane was washed with PBS for 4 times and fixed with methanol and dyed with hematoxylin-eosin solution. The membrane was removed from the intercell and placed on a slide, dried in air, followed by sealing with Canada balsam. The cell number was microscopically counted in 5 visual fields. Taking average number of the five fields, the average was employed as the number of migrating cells. The value subtracting the migrating cell number in a control experiment containing no fMLP from the cell number in an experiment containing no the compound of the present invention was regarded as 100, the chemotaxis suppressing activity was determined as the following formula: Neutrophilic chemotaxis suppressing activity (%) [formula] = 100 - A/B x 100 [formula] = 100 - (C - D)/(E-D) x 100 [formula] Where: • A: chemotaxis measured in the experiment containing the compound of the present invention; • B: chemotaxis measured in the experiment not containing the compound of the present invention • C: the number of migrating cells measured in the experiment containing both the compound of the present invention and fMLP. • D: the number of migrating cells in the experiment containing neither the compound of the present invention nor fMLP. • E: the number of migrating cells in the experiment containing only fMLP.

IC50 [1] [nM] | IC50 [2] [nM] | IC50 [4] [nM] | SMILES | other results
790 |  |  | Cc1cccc2nc([C@@H](NC(=O)CN(c3ccccc3)c3ccccc3)C(C)C)oc(=O)c12 [Compound 7, 2-{1(S)-[(N,N-diphenyl-glycyl)amino]-2-methylpropyl}-5-methyl-4H-3,1-benzoxazin-4-one] | 
400 |  |  | Cc1cccc2nc([C@@H](NC(=O)CCC(c3ccccc3)c3ccccc3)C(C)C)oc(=O)c12 [Compound 8, 2-{1(S)-[(4,4-diphenylbutyryl)amino]-2-methylpropyl}-5-methyl-4H-3,1-benzoxazin-4-one] | 
210 | > 25000 | 1550 | Cc1cccc2nc([C@@H](NC(=O)OCC34CC5CC(CC(C5)C3)C4)C(C)C)oc(=O)c12 [Compound 6, 2-[1(S)-[[(1-adamantyl)methoxy-carbonyl]amino]-2-methylpropyl]-5-methyl-4H-3,1-benzoxazin-4-one] | IC50 [3]: > 12600 nM; IC50 [5]: 260 nM
550 |  |  | Cc1cccc2nc([C@@H](NC(=O)COC(c3ccccn3)c3ccccn3)C(C)C)oc(=O)c12 [Compound 4] | 
550 |  |  | Cc1cccc2nc([C@@H](NC(=O)CON=C(c3ccccc3)c3ccccn3)C(C)C)oc(=O)c12 [Compound 9, 5-Methyl-2-[2-methyl-1(S)-[[[[[phenyl(2-pyridyl)methylene]amino]oxy]acetyl]amino]propyl]-4H-3,1-benzoxazin-4-one] | 
220 | > 27400 | 830 | Cc1cccc2nc([C@@H](NC(=O)COC(c3ccccc3)c3ccccc3)C(C)C)oc(=O)c12 [Compound 2, 2-[1(S)-[[(diphenylmethoxy)acetyl]amino]-2-methylpropyl]-5-methyl-4H-3,1-benzoxazin-4-one] | Chemotaxis ([6]; Concentration 0.125 µM): 70.6; Chemotaxis ([6]; Concentration 1.000 µM): 57.4; activity at 0.125 µM ([6]; Homo sapiens, 1 h, Concentration 0.125 µM): 29.4%; activity at 1 µM ([6]; Homo sapiens, 1 h, Concentration 1.000 µM): 42.6%
